# Biological target: Substance P receptors (GPI) (Cavia porcellus, UniProt P30547)
# Experiment: Substance P antagonist assay in guinea pig ileum with naloxone
# Type: cell-based
# Conditions: against Substance P induced contraction, 1 μM naloxone, n = 4
# Sequence of Substance P receptors (GPI) (P30547 whole entry): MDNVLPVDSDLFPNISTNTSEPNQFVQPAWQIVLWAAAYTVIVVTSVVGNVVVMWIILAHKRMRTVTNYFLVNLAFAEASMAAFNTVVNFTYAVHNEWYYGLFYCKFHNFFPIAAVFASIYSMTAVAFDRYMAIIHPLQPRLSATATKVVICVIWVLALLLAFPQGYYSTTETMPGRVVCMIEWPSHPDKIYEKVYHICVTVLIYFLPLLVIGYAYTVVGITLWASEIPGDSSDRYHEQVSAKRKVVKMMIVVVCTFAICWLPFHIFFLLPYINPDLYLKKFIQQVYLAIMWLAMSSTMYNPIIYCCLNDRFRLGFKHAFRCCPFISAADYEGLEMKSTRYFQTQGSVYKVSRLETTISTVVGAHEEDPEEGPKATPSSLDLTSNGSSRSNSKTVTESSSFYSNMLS
compound,measurement,value
"CC(=O)N[C@@H](Cc1c[nH]c2ccccc12)C(=O)OCc1cc(C(F)(F)F)cc(C(F)(F)F)c1 [L-732,138, Ac-Trp-O-3’,5’-Bzl(CF3)2]","Ke, GPI, Substance P antagonist",250 ± 87 nM
